Where two headings read alike, the source gives them in different places.
Key:
[1] = test system: LNCaP; assay: Inhibition of LNCaP cells (MTS cell proliferation); type: cell-based; conditions: for OD value 1 / OD value 2: 490 nm; for OD value 1 / OD value 2 / inhibition at 0.4 µM / inhibition at 0.8 µM / inhibition at 1.6 µM / inhibition at 3.2 µM / inhibition at 6.25 µM / inhibition at 12.5 µM / inhibition at 25 µM / inhibition at 50 µM / inhibition at 100 µM: 72 h; for inhibition at 0.4 µM / inhibition at 0.8 µM / inhibition at 1.6 µM / inhibition at 3.2 µM / inhibition at 6.25 µM / inhibition at 12.5 µM / inhibition at 25 µM / inhibition at 50 µM / inhibition at 100 µM / IC50: Homo sapiens
Procedure: Inhibition of LNCaP Cells Cells: LNCaP, ATCC Passage unknown, Mycoplasma free. Medium: RPMI-1640 Medium (GIBCO Cat #22400121) supplemented with 10% fetal bovine serum (Hyclone Cat #SH30396.03). Seeding: 3,000 cells/well (100 uL) into 96-wells plate, incubated overnight at 37° C. in a humidified, 5% CO2 atmosphere. Treatment: Test compounds and Gemcitabine were prepared in a serial dilution (1:2) by culture medium. Fifty microliters (50 uL) of serially diluted solutions were added into each well. The final concentrations of the positive control and test compounds were shown in the graphs. The cells were incubated for 72 hours after addition of the test compounds. MTS: 15 uL of MTS solution (Promega Cat #G5430) was added into each well and incubated with cells for 4 hours at 37° C. in a humidified, 5% CO2 atmosphere. Measurement: Absorbance at 490 nm was measured using MD Spectramax Plus384 spectrophotometer. The regression curves were calculated by the GraphPad Prism 5 using “log(inhibitor) vs response—variable slope”. Calculation: % of inhibition+(AVE zero ctrl−AVE compound)/AVE zero ctrl*100.

[2] = test system: MDA-MB-468 cells; assay: Inhibition of MDA-MB-468 cells (MTS cell proliferation); type: cell-based; conditions: for OD value 1 / OD value 2: 490 nm; for OD value 1 / OD value 2 / inhibition at 0.4 µM / inhibition at 0.8 µM / inhibition at 1.6 µM / inhibition at 3.2 µM / inhibition at 6.25 µM / inhibition at 12.5 µM / inhibition at 25 µM / inhibition at 50 µM / inhibition at 100 µM: 72 h; for inhibition at 0.4 µM / inhibition at 0.8 µM / inhibition at 1.6 µM / inhibition at 3.2 µM / inhibition at 6.25 µM / inhibition at 12.5 µM / inhibition at 25 µM / inhibition at 50 µM / inhibition at 100 µM / IC50: Homo sapiens
Procedure: Inhibition of MDA-MB-468 Cells Cells: MDA-MB-468 cells, ATCC Passage unknown, Mycoplasma free. Medium: RPMI-1640 Medium (GIBCO Cat #22400121) supplemented with 10% fetal bovine serum (Hyclone Cat #SH30396.03). Seeding: 2,000 cells/well (100 ul) into 96-wells plate, incubated overnight at 37° C. in a humidified, 5% CO2 atmosphere. Treatment: Test compounds and Gemcitabine were prepared in a serial dilution (1:2) by culture medium. Fifty microliters (50 uL) of serially diluted solutions were added into each well. The final concentrations of the positive control and test compounds were shown in the graphs. The cells were incubated for 72 hours after addition of the test compounds. MTS: 15 uL of MTS solution (Promega Cat #G5430) was added into each well and incubated with cells for 4 hours at 37° C. in a humidified, 5% CO2 atmosphere. Measurement: Absorbance at 490 nm was measured using MD Spectramax Plus384 spectrophotometer. The regression curves were calculated by the GraphPad Prism 5 using “log(inhibitor) vs response—variable slope”.

IC50 ([1]; LNCaP, Table 18, read-out: LNCaP* 50% inhibition concentration): 1970 nM
IC50 ([1]; Table 26, LNCaP, 72 hours, read-out: 50% viability conc.): 1970 nM
IC50 ([1]; Table 26, LNCaP, 72 hours, read-out: IC50): 2380 nM
IC50 ([2]; MDA-MB-468, Table 17, read-out: MDA-MB-468* 50% inhibition concentration): 3340 nM
IC50 ([2]; Table 26, MDA-MB-468, 72 hours, read-out: 50% viability conc.): 3340 nM
IC50 ([2]; Table 26, MDA-MB-468, 72 hours, read-out: IC50): 2530 nM
Structure (SMILES): Nc1ccn([C@@H]2O[C@H](CO)[C@@H](O)C2(F)F)c(=O)n1 [Gemcitabine]
OD value 1 ([1]; 0.400 uM, replicate 1): 0.578
OD value 2 ([1]; 0.400 uM, replicate 2): 0.662
OD value 1 ([1]; 0.800 uM, replicate 1): 0.459
OD value 2 ([1]; 0.800 uM, replicate 2): 0.434
OD value 1 ([1]; 1.600 uM, replicate 1): 0.448
OD value 2 ([1]; 1.600 uM, replicate 2): 0.472
OD value 1 ([1]; 3.200 uM, replicate 1): 0.322
OD value 2 ([1]; 3.200 uM, replicate 2): 0.337
OD value 1 ([1]; 6.250 uM, replicate 1): 0.182
OD value 2 ([1]; 6.250 uM, replicate 2): 0.190
OD value 1 ([1]; 12.500 uM, replicate 1): 0.166
OD value 2 ([1]; 12.500 uM, replicate 2): 0.173
OD value 1 ([1]; 25.000 uM, replicate 1): 0.101
OD value 2 ([1]; 25.000 uM, replicate 2): 0.177
OD value 1 ([1]; 50.000 uM, replicate 1): 0.124
OD value 2 ([1]; 50.000 uM, replicate 2): 0.202
OD value 1 ([1]; 100.000 uM, replicate 1): 0.112
OD value 2 ([1]; 100.000 uM, replicate 2): 0.197
inhibition at 0.4 µM ([1]; LNCaP, 0.400 uM, replicate 1, read-out: % of inhibition 1): 12.8%
inhibition at 0.4 µM ([1]; LNCaP, 0.400 uM, replicate 2, read-out: % of inhibition 2): 13.6%
inhibition at 0.8 µM ([1]; LNCaP, 0.800 uM, replicate 1, read-out: % of inhibition 1): 30.8%
inhibition at 0.8 µM ([1]; LNCaP, 0.800 uM, replicate 2, read-out: % of inhibition 2): 43.4%
inhibition at 1.6 µM ([1]; LNCaP, 1.600 uM, replicate 1, read-out: % of inhibition 1): 32.4%
inhibition at 1.6 µM ([1]; LNCaP, 1.600 uM, replicate 2, read-out: % of inhibition 2): 38.4%
inhibition at 3.2 µM ([1]; LNCaP, 3.200 uM, replicate 1, read-out: % of inhibition 1): 51.4%
inhibition at 3.2 µM ([1]; LNCaP, 3.200 uM, replicate 2, read-out: % of inhibition 2): 56%
inhibition at 6.25 µM ([1]; LNCaP, 6.250 uM, replicate 1, read-out: % of inhibition 1): 72.5%
inhibition at 6.25 µM ([1]; LNCaP, 6.250 uM, replicate 2, read-out: % of inhibition 2): 75.2%
inhibition at 12.5 µM ([1]; LNCaP, 12.500 uM, replicate 1, read-out: % of inhibition 1): 75%
inhibition at 12.5 µM ([1]; LNCaP, 12.500 uM, replicate 2, read-out: % of inhibition 2): 77.4%
inhibition at 25 µM ([1]; LNCaP, 25.000 uM, replicate 1, read-out: % of inhibition 1): 84.8%
inhibition at 25 µM ([1]; LNCaP, 25.000 uM, replicate 2, read-out: % of inhibition 2): 76.9%
inhibition at 50 µM ([1]; LNCaP, 50.000 uM, replicate 1, read-out: % of inhibition 1): 81.3%
inhibition at 50 µM ([1]; LNCaP, 50.000 uM, replicate 2, read-out: % of inhibition 2): 73.6%
inhibition at 100 µM ([1]; LNCaP, 100.000 uM, replicate 1, read-out: % of inhibition 1): 83.1%
inhibition at 100 µM ([1]; LNCaP, 100.000 uM, replicate 2, read-out: % of inhibition 2): 74.3%
Maximal inhibition % ([1]; Table 26, LNCaP, 72 hours): 78.69%
OD value 1 ([2]; 0.400 μM, replicate 1): 0.313
OD value 2 ([2]; 0.400 μM, replicate 2): 0.337
OD value 1 ([2]; 0.800 μM, replicate 1): 0.275
OD value 2 ([2]; 0.800 μM, replicate 2): 0.310
OD value 1 ([2]; 1.600 μM, replicate 1): 0.201
OD value 2 ([2]; 1.600 μM, replicate 2): 0.264
OD value 1 ([2]; 3.200 μM, replicate 1): 0.151
OD value 2 ([2]; 3.200 μM, replicate 2): 0.192
OD value 1 ([2]; 6.250 μM, replicate 1): 0.101
OD value 2 ([2]; 6.250 μM, replicate 2): 0.105
OD value 1 ([2]; 12.500 μM, replicate 1): 0.066
OD value 2 ([2]; 12.500 μM, replicate 2): 0.053
OD value 1 ([2]; 25.000 μM, replicate 1): 0.033
OD value 2 ([2]; 25.000 μM, replicate 2): 0.035
OD value 1 ([2]; 50.000 μM, replicate 1): 0.064
OD value 2 ([2]; 50.000 μM, replicate 2): 0.064
OD value 1 ([2]; 100.000 μM, replicate 1): 0.034
OD value 2 ([2]; 100.000 μM, replicate 2): 0.007
inhibition at 0.4 µM ([2]; MDA-MB-468, 0.400 μM, replicate 1, read-out: % of inhibition 1): 6.01%
inhibition at 0.4 µM ([2]; MDA-MB-468, 0.400 μM, replicate 2, read-out: % of inhibition 2): 1.17%
inhibition at 0.8 µM ([2]; MDA-MB-468, 0.800 μM, replicate 1, read-out: % of inhibition 1): 17.4%
inhibition at 0.8 µM ([2]; MDA-MB-468, 0.800 μM, replicate 2, read-out: % of inhibition 2): 9.08%
inhibition at 1.6 µM ([2]; MDA-MB-468, 1.600 μM, replicate 1, read-out: % of inhibition 1): 39.6%
inhibition at 1.6 µM ([2]; MDA-MB-468, 1.600 μM, replicate 2, read-out: % of inhibition 2): 22.6%
inhibition at 3.2 µM ([2]; MDA-MB-468, 3.200 μM, replicate 1, read-out: % of inhibition 1): 54.7%
inhibition at 3.2 µM ([2]; MDA-MB-468, 3.200 μM, replicate 2, read-out: % of inhibition 2): 43.6%
inhibition at 6.25 µM ([2]; MDA-MB-468, 6.250 μM, replicate 1, read-out: % of inhibition 1): 69.7%
inhibition at 6.25 µM ([2]; MDA-MB-468, 6.250 μM, replicate 2, read-out: % of inhibition 2): 69.1%
inhibition at 12.5 µM ([2]; MDA-MB-468, 12.500 μM, replicate 1, read-out: % of inhibition 1): 80.2%
inhibition at 12.5 µM ([2]; MDA-MB-468, 12.500 μM, replicate 2, read-out: % of inhibition 2): 84.4%
inhibition at 25 µM ([2]; MDA-MB-468, 25.000 μM, replicate 1, read-out: % of inhibition 1): 90.1%
inhibition at 25 µM ([2]; MDA-MB-468, 25.000 μM, replicate 2, read-out: % of inhibition 2): 89.6%
inhibition at 50 µM ([2]; MDA-MB-468, 50.000 μM, replicate 1, read-out: % of inhibition 1): 80.8%
inhibition at 50 µM ([2]; MDA-MB-468, 50.000 μM, replicate 2, read-out: % of inhibition 2): 81.1%
inhibition at 100 µM ([2]; MDA-MB-468, 100.000 μM, replicate 1, read-out: % of inhibition 1): 89.8%
inhibition at 100 µM ([2]; MDA-MB-468, 100.000 μM, replicate 2, read-out: % of inhibition 2): 97.8%
Maximal inhibition % ([2]; Table 26, MDA-MB-468, 72 hours): 93.83%
